Patent US9737075B2, “Synergistic benzoxaborole-containing anti-fungicidal composition” (The Penn State Research Foundation, priority 2015, dated 2017)
Values after ≈ are worked out from the molar mass of the structure shown. Where two headings read alike, the source gives them in different places.

Legend:
Assay type in all cases: cell-based
Botrytis cinerea 10-1728 = assay: Broth microdilution MIC of individual antifungals; settings: 101728; Botrytis cinerea 10-1728; individual antifungal, 25% PDB, about 25° C., 72 hours; range over N independent triplicate studies; read-out: Independent MIC
Stachybotrys chartarum = assay: Broth microdilution MIC of individual antifungals; settings: individual antifungal, 25% PDB, about 25° C., 72 hours, range over N independent triplicate studies, read-out: Independent MIC
Alternaria solani = assay: Broth microdilution MIC of individual antifungals; settings: individual antifungal, 25% PDB, about 25° C., 72 hours, range over N independent triplicate studies, read-out: Independent MIC
Aspergillus fumigatus = assay: Broth microdilution MIC of individual antifungals; settings: individual antifungal, 25% PDB, about 25° C., 72 hours, range over N independent triplicate studies, read-out: Independent MIC
Aspergillus niger = assay: Broth microdilution MIC of individual antifungals; settings: read-out: Independent MIC
Sclerotinia homoeocarpa = assay: Broth microdilution MIC of individual antifungals; settings: Clarireedia homoeocarpa; Sclerotinia homoeocarpa; individual antifungal, 25% PDB, about 25° C., 72 hours; range over N independent triplicate studies; read-out: Independent MIC
Aureobasidium pullulans = assay: Broth microdilution MIC of individual antifungals; settings: individual antifungal, 25% PDB, about 25° C., 72 hours, range over N independent triplicate studies, read-out: Independent MIC
[1] = tested on: Fusarium solani f. sp. pisi (MP VI); assay: Broth microdilution MIC of individual antifungals; settings: read-out: Independent MIC
Botrytis cinerea B17 = assay: Broth microdilution MIC of individual antifungals; settings: Botrytis cinerea B17; individual antifungal, 25% PDB, about 25° C., 72 hours; range over N independent triplicate studies; read-out: Independent MIC
Aspergillus flavus = assay: Broth microdilution MIC of individual antifungals; settings: read-out: Independent MIC
[2] = tested on: Fusarium oxysporum f. sp. lycopersici; assay: Broth microdilution MIC of individual antifungals; settings: individual antifungal, 25% PDB, about 25° C., 72 hours, range over N independent triplicate studies
Mucor sp. = assay: Broth microdilution MIC of individual antifungals; settings: individual antifungal, 25% PDB, about 25° C., 72 hours, range over N independent triplicate studies
Fusarium verticillioides = assay: Broth microdilution MIC of individual antifungals; settings: individual antifungal, 25% PDB, about 25° C., 72 hours, range over N independent triplicate studies, read-out: Independent MIC
[3] = tested on: two dozen different fungal organisms; assay: Broth microdilution MIC, summary over the organisms examined
Experimental: All antifungal susceptibility assays were conducted in triplicate and N independent times. Thus, the inhibition studies were conducted a total of 3·N times. […] Thus, each synergy assay (combination of two antifungals) was conducted in conjunction with independent MIC determination. FICI values were calculated by comparing the inhibition activity of the combination (benzoxaborole+another antifungal) against the efficacy of the individual antifungal within the same experiment (using the same experimental conditions).
The studies were performed in flat bottom, 96-well microtiter plates (Greiner Bio-One).
Plates sealed with clear polyester film (VWR) were incubated at a temperature of about 25° C. The progress of fungal growth was monitored at 48 hours, 72 hours, 7 days, and 15 days. […] In order to establish appropriate comparison between the different fungi, the FICI (thus, the MICs used) determination was done at 72 hours for all cases discussed herein.
The MICs of the individual antifungals (MICBoron and MICA) and in combination (MICBA) were determined after 72 hours of incubation. […] MICA is defined as the MIC value of every other individual non-benzoxaborole-based antifungal. MICBA is defined as the MIC value when the benzoxaborole antifungal is combined with another non-benzoxaborole antifungal. […] The combination studies were performed in triplicate in flat bottom 96-well microtiter plates with a final media volume of 0.2 mL/well.

Fusarium oxysporum ST33 = assay: Broth microdilution MIC of individual antifungals; settings: individual antifungal, 25% PDB, about 25° C., 72 hours, range over N independent triplicate studies
Rhizopus sp. = assay: Broth microdilution MIC of individual antifungals; settings: read-out: Independent MIC
[4] = tested on: Mycosphaerella zeae-maydis; assay: Broth microdilution MIC of individual antifungals; settings: Didymella maydis, individual antifungal, 25% PDB, about 25° C., 72 hours, range over N independent triplicate studies
Magnaporthe grisea = assay: microbe, parasite or virus in culture; settings: Pyricularia oryzae, 72 h, read-out: Independent MIC
Rhizoctonia solani = assay: Broth microdilution MIC of individual antifungals; settings: read-out: Independent MIC
Pythium aphanodermatum = assay: Broth microdilution MIC of individual antifungals; settings: individual antifungal, 25% PDB, about 25° C., 72 hours, range over N independent triplicate studies
Candida albicans = assay: Broth microdilution MIC of individual antifungals; settings: read-out: Independent MIC
Phytophthora pini = assay: Broth microdilution MIC of individual antifungals; settings: individual antifungal, 25% PDB, about 25° C., 72 hours, range over N independent triplicate studies
Fusarium graminearum = assay: microbe, parasite or virus in culture; settings: Fusarium graminearum, 72 h, read-out: Independent MIC
Penicillium chrysogenum = assay: Broth microdilution MIC of individual antifungals; settings: read-out: Independent MIC
[5] = tested on: Colletotrichum orbiculare; assay: Broth microdilution MIC of individual antifungals; settings: read-out: Independent MIC
[6] = individual antifungal, 25% PDB, about 25° C., 72 hours, range over N independent triplicate studies
[7] = Fusarium solani f. sp. pisi (MP VI), individual antifungal, 25% PDB, about 25° C., 72 hours, range over N independent triplicate studies
[8] = by itself, against the organisms examined (Table 1), regularly
[9] = Rhizopus, 72 h, Rhizopus sp., individual antifungal, 25% PDB, about 25° C., 72 hours, range over N independent triplicate studies
[10] = against many species tested here

SMILES | MIC (Botrytis cinerea 10-1728) [µg/mL] | MIC (Stachybotrys chartarum) [µg/mL] | MIC (Alternaria solani) [µg/mL] | MIC (Aspergillus fumigatus) [µg/mL] | MIC (Aspergillus niger; [6]) [µg/mL] | MIC (Sclerotinia homoeocarpa) [µg/mL] | MIC (Aureobasidium pullulans) [µg/mL] | MIC [1, 7] [µg/mL] | MIC (Botrytis cinerea B17) [µg/mL] | MIC (Aspergillus flavus; [6]) [µg/mL] | MIC [2] [µg/mL] | MIC (Mucor sp.) [µg/mL] | MIC (Fusarium verticillioides) [µg/mL] | MIC (Fusarium oxysporum ST33) [µg/mL] | MIC (Rhizopus sp.; [9]) [µg/mL] | MIC [4] [µg/mL] | MIC (Magnaporthe grisea) [µg/mL] | MIC (Rhizoctonia solani; [6]) [µg/mL] | MIC (Fusarium graminearum) [µg/mL] | MIC [5, 6] [µg/mL] | further results
Cc1ccc2c(c1)COB2O [B1, 5-Methyl-1,3-dihydro-2,1-benzoxaborol-1-ol] | 2 | 0.5 | 1 | 0.25 | 2 | 1 | 1 | 2 | 2 | 2 | 1 | 1 | 0.5 | 1 | 16 | 16 | – | – | – | – | MIC [3, 8]: ≤ 4 µg/mL
OB1OCc2cc(Cl)ccc21 [B18, 5-chloro-1,3-dihydro-2,1-benzoxaborol-1-ol] | 0.5 to 2 | 0.25 to 1 | 0.5 | 0.125 to 0.25 | 0.5 to 2 | 1 to 4 | 0.125 | 0.5 | 0.5 | 0.5 to 1 | 0.25 | 0.5 to 1 | 0.25 to 0.5 | 0.5 | 0.5 to 2 | 4 to 8 | 0.39 to 1.56 (≈ 2.32 to 9.26 µM) | 1.56 to 8 | 1 (≈ 5.94 µM) | 0.78 | MIC (Pythium aphanodermatum): 0.25 to 2 µg/mL; MIC (Candida albicans; [6]): 0.5 to 1 µg/mL; MIC (Phytophthora pini): 0.125 µg/mL; MIC (Penicillium chrysogenum; [6]): 0.19 to 0.38 µg/mL; MIC [3, 8]: ≤ 4 µg/mL
OB1OCc2cc(F)ccc21 [B90, 5-Fluoro-1,3-dihydro-2,1-benzoxaborol-1-ol] | 0.25 to 0.5 | 0.25 to 0.5 | 0.25 to 0.5 | 0.063 to 0.125 | 0.25 to 1 | 0.25 to 1 | 0.25 to 0.5 | 0.5 to 1 | 0.5 to 2 | 0.5 to 1 | 0.25 to 0.5 | 0.25 | 0.25 to 0.4 | 0.25 to 0.5 | 1 to 2 | 1 to 8 | 1.25 to 2 (≈ 8.23 to 13.2 µM) | 1.56 to 8 | 0.5 to 2 (≈ 3.29 to 13.2 µM) | 0.78 to 1.56 | MIC (Pythium aphanodermatum): 2 to 4 µg/mL; MIC (Candida albicans; [6]): 0.5 µg/mL; MIC (Penicillium chrysogenum; [6]): 0.19 to 0.39 µg/mL; MIC [3, 8]: ≤ 4 µg/mL
O=C1C2CC=CCC2C(=O)N1SC(Cl)(Cl)Cl (stereo not drawn) [Captan, captan] | 0.94 to 1.56 | 0.39 to 0.5 | 1.5 to 3.12 | 6.25 to 12.5 | 12.5 to 16 | 2 to 4 | 0.375 to 0.78 | 3 to 3.12 | 1.88 to 4 | 12.5 to 25 | 1.56 to 4 | 3.12 to 12.5 | 1 to 2 | 1 to 2 | 12.5 to 40 | 1 to 1.56 | 0.19 to 0.2 (≈ 0.632 to 0.665 µM) | – | 0.78 to 0.8 (≈ 2.59 to 2.66 µM) | 0.39 to 0.78 | MIC (Pythium aphanodermatum): 28 µg/mL; MIC (Phytophthora pini): 0.39 µg/mL; MIC (Penicillium chrysogenum; [6]): 0.75 to 0.78 µg/mL; MIC [3, 10]: > 25 µg/mL
N#Cc1c(Cl)c(Cl)c(Cl)c(C#N)c1Cl [Chlorothalonil, chlorothalonil] | 0.2 to 0.5 | – | 1 to 1.56 | 0.1 to 0.2 | 0.39 to 1 | 0.39 to 0.78 | – | 12.5 to 25 | – | 0.1 to 0.2 | – | 0.78 to 1 | 0.75 to 0.78 | – | 0.78 | 0.78 to 1 | – | 1.56 | 0.78 to 1.56 (≈ 2.93 to 5.87 µM) | 0.39 | MIC (Candida albicans; [6]): 0.78 µg/mL; MIC (Penicillium chrysogenum; [6]): 0.1 µg/mL; MIC [3, 10]: > 25 µg/mL
CNC(=S)S [Metam Sodium, Metam sodium] | 50 to 200 | – | 12.5 to 15 | 25 | – | 6.25 | – | – | – | – | – | 50 | 25 | – | – | 6 to 6.25 | – | 25 to 50 | 12.5 to 25 | – | MIC (Aspergillus niger; 72 h): 50 µg/mL; MIC (Candida albicans; 72 h): 25 µg/mL; MIC ([1]; Fusarium solani, 72 h): 25 to 50 µg/mL; MIC (Phytophthora pini): 50 µg/mL; MIC (Aspergillus flavus; 72 h): 25 µg/mL; MIC (Penicillium chrysogenum; 72 h): 50 µg/mL; MIC ([5]; 72 h): 12.5 to 25 µg/mL; MIC [3, 10]: > 25 µg/mL; MIC (Rhizopus sp.; Rhizopus, 72 h): 100 µg/mL
S=C(S)NCCNC(=S)S [Zineb, zineb] | 3 to 3.12 | – | 6.25 to 12.5 | 0.78 to 1.56 | – | 6.25 to 12.5 | – | 6.25 to 12.5 | – | – | – | – | 3.12 to 6.25 | – | – | 1.56 to 2 | 0.78 to 1.56 (≈ 3.67 to 7.34 µM) | – | 1.56 (≈ 7.34 µM) | 3.13 to 6.25 | MIC (Rhizoctonia solani; 72 h): 3.12 µg/mL; MIC (Candida albicans; 72 h): 3.12 µg/mL; MIC (Phytophthora pini): 25 µg/mL; MIC (Aspergillus flavus; 72 h): 1 to 1.56 µg/mL; MIC (Penicillium chrysogenum; 72 h): 1.56 to 6.25 µg/mL; MIC [3, 10]: > 25 µg/mL; MIC (Rhizopus sp.; Rhizopus sp., individual antifungal, 25% PDB, about 25° C., 72 hours, range over N independent triplicate studies): 12.5 µg/mL
